This passage reports EC50 results from patent publication US11230526B1, “Cylcoalkenyl derivatives useful as agonists of the GPR120 and/or GPR40 receptors” (Janssen Pharmaceutica NV, priority 2018, dated 2022).

Common to all, as to type: cell-based
The target in experiment [1] is T1, short form of the GPR120 receptor (Homo sapiens, UniProt Q5NUL3).
T1 construct: host or cells: PathHunter CHO-K1 GPR120S β-Arrestin Cell Line
The experiment is described as follows: Human GPR120 DiscoveRx PathHunter Beta-Arrestin assay, Procedure β-arrestin B. The source says: Human GPR120 DiscoveRx PathHunter® Beta-Arrestin Assay Assay Principle:
The binding of an agonist (medium/long chain fatty acids or small molecule agonists) to the G-protein-coupled receptor GPR120 activates phospholipase C, leading to release of intracellular Ca^+2 through the generation of inositol 1,4,5-trisphosphate (InsP3 or IP3). GPR120 activation can also trigger intracellular signaling via recruitment of Beta-Arrestin. In the present method, agonist-induced activation of the human GPR120 receptor is monitored through the use of PathHunter® CHO-K1 GPR120 Beta-Arrestin Cell Line engineered by DiscoveRx, as detailed below. The cell lines are designed to co-express both the ProLink/Enzyme Donor (PK)-tagged GPCR and the Enzyme […] (EA)-tagged Beta-Arrestin fusion proteins. Upon GPR120 receptor stimulation/activation, the EA-tagged Beta-Arrestin portion is translocated to the tagged receptor, where the two enzyme fragments are brought within close proximity. Under these conditions, these fragments can interact and form an active Beta-gal enzyme complex through Enzyme Fragment Complementation (EFC). This active Beta-gal complex can enzymatically hydrolyse the substrate to produce a detectable light signal; therefore, activation as a function of agonist concentration can be expressed as an EC50 value to determine relative compound activities. This in vitro assay therefore serves to assess compound agonist activity of the GPR120.
In Procedure β-arrestin B the cells used were PathHunter® CHO-K1 GPR120S β-Arrestin Cell Line, expressing the short form of the GPR120 receptor (Accession #[…]), with 5000 cells/well.
The selected CHO-K1 GPR120 β-Arrestin cells were cultured in Ham's F12 media supplemented with 10% fetal bovine serum (FBS), 1% Glutamine, 1×p/s, 800 μg/mL G418 and 300 μg/mL Hygromycin B (for selection). Cell stocks were maintained and grown in a sub-confluent state using standard cell culture procedures. The day before the experiment, the cells were harvested with non-enzymatic cell dissociation buffer and re-suspended in complete growth media at the desired concentration. A Corning 384-plate was then seeded with the proper number of cells in a volume of 25 μL, per well. The seeded plates were incubated overnight at 37° C.
On the day of the experiment, the Assay Buffer containing (a) HBSS with Ca^++ and Mg^++, (b) 20 mM HEPES, and (c) 0.1% BSA stabilizer (pH 7.4) was prepared. The growth medium was gently removed from the cell plates and 20 μL of Assay Buffer added to each well. The plate was then incubated at 37° C. for 60 min. Test compounds were serially diluted in Assay Buffer to desired concentrations (more particularly to one or more of the following μM concentrations: 25, 12.5, 6.25, 3.12, 1.56, 0.78, 0.39, 0.19, 0.10, 0.05, 0.02, 0.01). Five μL of compound dilution was then added to each well and the plate incubated at 37° C. for 90 min. The detection reagents were prepared according to the manufacture's instruction. Twelve μL of the detection reagents were added to each well and the plate incubated at room temperature for 60 min.
The plates were read on an EnVision instrument, using Protocol name: Luminescence, Plate type: 384 Costar, Measurement height: 3 mm, Measurement time: 1 s, Aperture: 384 Plate aperture. The % Activity relative to the positive control was calculated using the following equation:
The % Activity values were plotted versus the concentration of test compound and fitted to a sigmoidal dose-response curve with a Hill slope=1 (fixed value) using nonlinear regression with GraphPad Prism 5.0 to calculate the EC50 values. The Fitting Equation was: Y=Bottom+(Top-Bottom)/(1+10^((Log EC50−X)*HillSlope)), where X is the log of the concentration and Y is the response.

The target in experiment [2] is T2, Human GPR120 short form (Homo sapiens, UniProt Q5NUL3).
T2 construct: expressed in transfected cells
T2 sequence (Q5NUL3 1-361): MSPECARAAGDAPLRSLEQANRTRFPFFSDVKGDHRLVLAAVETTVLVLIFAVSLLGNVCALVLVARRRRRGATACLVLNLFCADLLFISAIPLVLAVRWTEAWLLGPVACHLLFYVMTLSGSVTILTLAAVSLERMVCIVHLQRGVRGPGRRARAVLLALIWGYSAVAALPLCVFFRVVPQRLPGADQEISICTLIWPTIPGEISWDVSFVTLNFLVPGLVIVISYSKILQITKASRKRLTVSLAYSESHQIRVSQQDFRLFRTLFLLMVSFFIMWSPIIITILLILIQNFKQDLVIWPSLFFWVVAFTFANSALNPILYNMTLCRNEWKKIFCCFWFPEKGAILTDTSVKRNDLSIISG
The experiment is described as follows: Human GPR120 calcium flux assay, Procedure Calcium B (4200 cells/well). The method, boiled down: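 HEK293 cells stably expressing human GPR120 (NM_001195755.1), 4200 cells/well, starved 1 h and loaded with Fluo-4 NW plus probenecid. Ligand-evoked calcium flux read on FLIPR for 300 s after a 10 s baseline. RFU = Fmax−Fmin; EC50 from four-parameter concentration-response fit.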
(In general: Calcium flux is commonly read through the fluorescence of an indicator in the cells.)

The target in experiment [3] is T2, Human GPR120 short form. The experiment is described as follows: Human GPR120 calcium flux assay, Procedure Calcium A (2500 cells/well). The source says: Human GPR120 in Calcium Flux Assay
This in vitro assay serves to assess test compound agonist activity against the short splice variant (SVS with Accession number NM_001195755.1 confirmed by sequencing data) of the GPR120 receptor. The Human Short splice variant #2 (NM_001195755.1) is missing an in-frame coding exon compared to variant 1 (the Human Long splice variant NM_181745.3), resulting in a shorter isoform (GPR120-S) lacking a 16 aa protein segment compared to isoform GPR120-L. The assay platform utilizes HEK-293 cells stably transfected to express the Human GPR120 short form. These cells are first loaded with the Ca^+2 sensitive dye, Fluo-4 NW. Upon stimulation, intracellular released Ca^+2 can bind to the dye and alter its fluorescence intensity. This increase in fluorescence signal, and thus the flux in intracellular [Ca^2+], is detected and quantitated by fluorescence imaging using a FLIPR reader. The effect of the agonist is measured as a function of concentration and used to calculate an EC50 based upon a response curve.
In this procedure 2500 cells/well were employed.
A Human GPR120 clone (Genbank accession number NM_001195755.1) was placed into the pcDNA3.1 mammalian expression vector carrying the neomycin resistance gene. A stable mammalian cell was generated by placing the above clone into a HEK293 background. Clonal cells responding to long chain fatty acids had expression levels of GPR120 confirmed by RT-qPCR. Human HEK-GPR120 cells were cultured in Dulbecco's Modified Eagle's Medium (DMEM)/F12 medium supplemented with 10% fetal bovine serum (FBS), 1% L-Glutamine and 1% penicillin/streptomycin and 0.5 mg/ml G-418. Cells were split 2 times a week to keep the cells in the log-phase growth.
In preparation for the assay, HEK cells stably transfected with Human GPR120 (2.5K cells per well in 25 uL growth medium) were seeded into 384-well plates and then incubated overnight (37° C., 5% CO2). The next day, the media was changed to 20 μL assay buffer and the cell starved for 1 h at 37° C. The dye loading solution (2× dye) was prepared using 10 mL assay buffer, 100 μL of 250 mM probenecid, 1 bottle of Component A, and 20 μl of dye in DMSO. Twenty μL of the 2× dye loading buffer was then added to each well. The plates were incubated at 37° C. for 30 min, then at room temperature for an additional 15 minutes, before performing the assay on FLIPR.
The assay was performed on a FLIPR plate reader using the following parameters. Baseline was read for 10 seconds at 1 sec intervals. The program was set to transfer 10 μL of ligand from compound plate to cell plate after baseline reading. Aspiration was executed at: 10 μL/sec speed, 4.6 μL height, Dispensing was executed at: 30 μL/sec speed, 45 μL height. After compound addition, each well was read for 300 sec, with measurements collected at 1 sec intervals.
The kinetic data from the FLIPR was based upon a 5 minute window for data collection. The fluorescence of each sample well was used for individual calculations of a normalized RFU value, which was defined as maximum response minus the minimum response. The normalized fluorescence reading (RFU) was calculated as follows: RFU=Fmax−Fmin
The Fitting Equation was: Y=Bottom+(Top-Bottom)/(1+10^((Log EC50−X)*HillSlope)), where X is the log of the concentration and Y is the response.

The next experiment concerns the target T3, human GPR40 (Homo sapiens, UniProt O14842).
T3 construct: expressed in transfected cells
The experiment can be described thus: GPR40 calcium flux assay, human GPR40. Conditions: HEK293 cells stably expressing GPR40; table does not say human or rat. In a few lines: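 Cells preincubated 1 h at 37° C. in HBSS, 20 mM HEPES, 0.1% BSA, then Fluo 8 calcium dye 30 min at 37° C. and 15 min at room temperature.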

T3 sequence (O14842 whole entry): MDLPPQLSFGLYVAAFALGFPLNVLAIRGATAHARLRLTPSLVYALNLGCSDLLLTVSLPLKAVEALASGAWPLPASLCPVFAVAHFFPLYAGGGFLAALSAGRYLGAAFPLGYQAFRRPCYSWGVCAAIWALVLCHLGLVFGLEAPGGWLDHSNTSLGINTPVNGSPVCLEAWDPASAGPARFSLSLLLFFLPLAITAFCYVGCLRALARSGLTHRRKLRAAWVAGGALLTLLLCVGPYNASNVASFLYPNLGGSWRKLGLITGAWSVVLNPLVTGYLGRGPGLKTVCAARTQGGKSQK
T1 sequence (P32121 whole entry partner, one chain of several): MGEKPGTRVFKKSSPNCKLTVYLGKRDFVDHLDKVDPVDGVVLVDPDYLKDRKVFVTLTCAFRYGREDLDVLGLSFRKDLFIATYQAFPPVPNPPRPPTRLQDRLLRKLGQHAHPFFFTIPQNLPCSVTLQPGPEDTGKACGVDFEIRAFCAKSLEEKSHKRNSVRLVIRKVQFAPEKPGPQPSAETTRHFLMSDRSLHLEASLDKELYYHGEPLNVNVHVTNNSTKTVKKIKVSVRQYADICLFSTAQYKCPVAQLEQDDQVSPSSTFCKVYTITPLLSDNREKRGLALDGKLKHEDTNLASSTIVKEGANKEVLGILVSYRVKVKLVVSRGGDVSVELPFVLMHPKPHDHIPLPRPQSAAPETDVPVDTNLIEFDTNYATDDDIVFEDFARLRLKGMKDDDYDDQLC

For orientation: EC50 means the concentration at which the effect is half-maximal. Take `CC(Cc1ccc(OCC2=C(c3ccc(F)cc3)CCC2)c(F)c1)C(=O)O` (centres unmarked) [Compound 458, 3-(3-fluoro-4-((2-(4-fluorophenyl)cyclopent-1-en-1-yl)methoxy)phenyl)-2-methylpropanoic Acid]: the concentration for a half-maximal effect (EC50) came out at 371 nM in experiment [1] and 331 nM on Human GPR120 short form [2].
Take `CCCc1ccc(C2=C(COc3ccc(CCC(=O)O)c(C)c3C)CCCC2)cc1` [Compound 463, 3-[2,3-dimethyl-4-[[2-(4-propylphenyl)cyclohexen-1-yl]methoxy]phenyl]Propanoic Acid]: the EC50 at Human GPR120 short form [3] was 4810 nM; on Human GPR120 short form [2], 1620 nM; at human GPR40, greater than 5000 nM.
Regarding `Cc1c(CCC(=O)O)ccc(OCC2=C(c3ccncc3)CCCC2)c1C` [Compound 465, 3-[2,3-dimethyl-4-[[2-(4-pyridyl)cyclohexen-1-yl]methoxy]phenyl]Propanoic Acid], the EC50 at Human GPR120 short form [3] was 2170 nM; on Human GPR120 short form [2], 1450 nM; on human GPR40, greater than 5000 nM.
The corresponding values for `Cc1c(CCC(=O)O)ccc(OCC2=C(c3ncccn3)CCCC2)c1C` [Compound 475, 3-[2,3-dimethyl-4-[(2-pyrimidin-2-ylcyclohexen-1-yl)methoxy]phenyl]Propanoic Acid] are 4480 nM, 2270 nM and greater than 5000 nM.
For `Cc1c(CCC(=O)O)ccc(OCC2=C(c3ccc(I)cc3)CCCC2)c1C` [Compound 476, 3-[4-[[2-(4-iodophenyl)cyclohexen-1-yl]methoxy]-2,3-dimethyl-phenyl]Propanoic Acid], in that order: 1330 nM, 475 nM and greater than 5000 nM.
Turning to `Cc1ccc(C2=C(COc3ccc(CCC(=O)O)cc3C)CCCC2)cn1` [Compound 477, 3-[3-methyl-4-[[2-(6-methyl-3-pyridyl)cyclohexen-1-yl]methoxy]phenyl]Propanoic Acid], the EC50 at Human GPR120 short form [3] is 1180 nM; on Human GPR120 short form [2] it was 256 nM; at human GPR40, greater than 5000 nM.
The corresponding values for `Cc1c(CCC(=O)O)ccc(OCC2=C(c3ccccn3)CCCC2)c1C` [Compound 490, 3-[2,3-dimethyl-4-[[2-(2-pyridyl)cyclohexen-1-yl]methoxy]phenyl]Propanoic Acid] are 2190 nM, 743 nM and greater than 5000 nM.
In the case of `O=C(O)CCc1cc(F)c(OCC2=C(c3ccc(Cl)cc3)CCC(F)(F)C2)c(F)c1` [Compound 491, 3-[4-[[2-(4-chlorophenyl)-5,5-difluoro-cyclohexen-1-yl]methoxy]-3,5-difluoro-phenyl]Propanoic Acid], the EC50 is 532 nM on Human GPR120 short form [3], 97 nM on Human GPR120 short form [2] and greater than 5000 nM at human GPR40.
With `O=C(O)CCc1ccc(OCC2=C(c3ccc(Cl)cc3)CCCC2)cc1F` [Compound 504, 3-[4-[[2-(4-chlorophenyl)cyclohexen-1-yl]methoxy]-2-fluoro-phenyl]Propanoic Acid], the EC50 on Human GPR120 short form [3] came out at 2820 nM; on Human GPR120 short form [2], 330 nM; on human GPR40, 4020 nM.
In the case of `Cc1cc(OCC2=C(c3ccc(Cl)cc3)CCCC2)ccc1CCC(=O)O` [Compound 506, 3-[4-[[2-(4-chlorophenyl)cyclohexen-1-yl]methoxy]-2-methyl-phenyl]Propanoic Acid], the values for the half-maximal effective concentration (EC50) at Human GPR120 short form [3], at Human GPR120 short form [2] and at human GPR40 were 1590 nM, 182 nM and greater than 5000 nM, respectively.
The corresponding values for `Cc1c(CCC(=O)O)ccc(OCC2=C(c3ccc(C(C)C)cc3)CCCC2)c1C` [Compound 516, 3-[4-[[2-(4-isopropylphenyl)cyclohexen-1-yl]methoxy]-2,3-dimethyl-phenyl]Propanoic Acid] are 4610 nM, 755 nM and greater than 5000 nM.
For `Cc1c(CCC(=O)O)ccc(OCC2=C(c3ccc(C#N)cc3)CCCC2)c1C` [Compound 520, 3-[4-[[2-(4-cyanophenyl)cyclohexen-1-yl]methoxy]-2,3-dimethyl-phenyl]Propanoic Acid], in that order: 2360 nM, 1450 nM and greater than 5000 nM.
For `Cc1ccc(C2=C(COc3ccc(CCC(=O)O)c(C)c3C)CCCC2)cn1` [Compound 521], in that order: 1280 nM, 626 nM and greater than 5000 nM.
